Data set [1] can be described thus: clinical. Conditions: human, in vivo, 10 mg. Here is the method:
On Day 1, rosuvastatin was administered as a single 10 mg dose (1×10 mg tablet).
All subjects fasted overnight (at least 10 hours) and refrained from consuming water for 1 hour prior to dosing. Subjects refrained from consuming water until 2 hours postdose, excluding the amount of water consumed at dosing, and fasted until 4 hours postdose. At all other times during the study, subjects may have consumed water ad libitum.
Blood samples for determination of rosuvastatin plasma concentrations and PK parameters were collected at hour 0 and at hours 0.5, 1, 2, 3, 4, 5, 6, 8, 10, 12, 24, 36, 48, 72, 96, and 120 hours postdose following administration of rosuvastatin on Days 1 and 6.
Pharmacokinetic analysis was carried out using actual dose administered (mg) and actual postdose blood sampling times. When an actual time was not recorded, it was set to missing and excluded from PK analysis and statistics with sponsor approval.
The parameters Cmax, time of the last quantifiable plasma concentration (tlast), and tmax were obtained directly from the concentration-time profiles. For multiple peaks, the highest postdose concentration was reported as Cmax. In the case that multiple peaks were of equal magnitude, the earliest tmax was reported.

Data set [2] in a line: Phase I crossover study: safety and tolerability (treatment-emergent adverse events). In kind it is in vivo, human. Conditions: for Treatment-emergent adverse events: healthy subjects; for Safety and tolerability: healthy male and female subjects.
The conditions of data set [3]: cited from earlier work.
Data set [4] deals with plasma proteins, mostly albumin. Conditions: reversible, independent of plasma concentrations; cited from earlier work.
For data set [5] the following is noted: incidence !2%; cited from earlier work.
A short description of data set [6]: Phase I crossover study: plasma pharmacokinetics of sotorasib coadministered with rosuvastatin. It is filed as in vivo, human. Conditions: 960 mg sotorasib + 10 mg rosuvastatin, (range). The method, then:
Times of all PK samples were recorded to the nearest minute.

For data set [7], the target named is T1, BCRP transporter (Homo sapiens, UniProt Q9UNQ0).
T1 sequence (Q9UNQ0 1-655): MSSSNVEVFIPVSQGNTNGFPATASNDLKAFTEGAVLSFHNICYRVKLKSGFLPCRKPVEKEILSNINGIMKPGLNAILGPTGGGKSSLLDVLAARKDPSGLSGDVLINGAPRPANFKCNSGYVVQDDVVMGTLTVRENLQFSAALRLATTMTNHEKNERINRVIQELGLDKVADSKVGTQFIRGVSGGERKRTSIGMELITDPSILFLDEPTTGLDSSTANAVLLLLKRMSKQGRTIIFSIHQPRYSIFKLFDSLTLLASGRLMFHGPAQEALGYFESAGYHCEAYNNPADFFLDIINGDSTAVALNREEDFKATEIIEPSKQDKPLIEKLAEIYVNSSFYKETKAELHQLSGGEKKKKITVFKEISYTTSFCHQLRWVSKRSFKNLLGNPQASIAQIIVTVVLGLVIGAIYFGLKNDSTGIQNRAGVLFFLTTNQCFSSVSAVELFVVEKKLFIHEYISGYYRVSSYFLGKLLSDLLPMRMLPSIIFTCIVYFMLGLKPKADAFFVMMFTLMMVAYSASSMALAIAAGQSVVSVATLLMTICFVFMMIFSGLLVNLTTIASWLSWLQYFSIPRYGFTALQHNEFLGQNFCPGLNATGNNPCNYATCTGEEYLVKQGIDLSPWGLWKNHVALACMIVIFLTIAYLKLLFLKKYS
The data set is described as follows: In vitro BCRP transporter inhibition. In kind it is in vitro ADME.

The subject of data set [8] is phosphorylation of extracellular signal-regulated kinase (ERK). Conditions: preclinical studies; cited from earlier work.

As a reminder, the half-life is the time needed for the level to fall by half in the phase considered. Low values mean fast loss, high ones slow loss. What is called AUC(0-t) is the area under the concentration-time curve up to a stated or last time point.

The structures appear in SMILES notation.

In the case of `CC(C)c1nc(N(C)S(C)(=O)=O)nc(-c2ccc(F)cc2)c1/C=C/[C@@H](O)C[C@@H](O)CC(=O)O` [rosuvastatin], in data set [1] (both), the AUCinf is 36.2 (60.1) h*ng/mL, the “AUCinf GLSM” value was 36.2 ng·h/mL, the AUClast GLSM came out at 33.2 ng·h/mL and the Cmax is 3.80 (57.8) ng/mL. Besides, in data set [1] (both), the “Cmax GLSM” value worked out at 3.80 ng/mL, the half-life is 13.8 h and the tmax is 3 h. For the same molecule, in data set [1] (both, po), the area under the curve AUC(0-t) came out at 33.2 ng·h/mL. In addition, the CL/F in data set [1] is listed as 276 (60.1) L/h. The Treatment-emergent adverse events result in data set [2] (10 mg rosuvastatin alone) is given as “No treatment-emergent adverse events”. Moreover, the Safety and tolerability result in data set [2] (single oral dose rosuvastatin 10 mg alone) is “safe and well tolerated”. Besides, in data set [3] (human, in vivo), the Elimination half-life result is listed as “approximately 19 hours”; the “Excreted in the feces (rosuvastatin and its metabolites)” value is recorded as 90%; the “Radiolabeled dose recovered as metabolite” value was “approximately 10%”. Further, in data set [3] (oral administration), the “Cmax and AUC dose dependence” value is recorded as “increased in approximate proportion to dose”. The Absolute bioavailability entry in data set [3] (oral) is “approximately 20%”. The “Bound to plasma proteins” value in data set [4] is given as 88%. Also, the “Most commonly reported adverse reactions” value in data set [5] is “headache, myalgia, abdominal pain, asthenia, and nausea”.

With `C=CC(=O)N1CCN(c2nc(=O)n(-c3c(C)ccnc3C(C)C)c3nc(-c4c(O)cccc4F)c(F)cc23)[C@@H](C)C1` (atropisomer, axis not shown) [sotorasib], the tlast in data set [6] is 48.0 (24.0-48.0) h. In addition, the Treatment-emergent adverse events result in data set [2] (960 mg sotorasib coadministered with 10 mg rosuvastatin) is “No treatment-emergent adverse events”. For the same molecule, the Safety and tolerability entry in data set [2] (rosuvastatin 10 mg in combination with sotorasib 960 mg, single oral doses) is “safe and well tolerated”. Moreover, the BCRP inhibition result in data set [7] is “inhibitor of BCRP transporter in vitro”. In data set [8], the “Inhibition of ERK phosphorylation” value is “inhibited nearly all detectable phosphorylation”.

The values above are taken from patent US20260166040A1 (AMGEN INC., priority 2022, published 2026).
